Measurements: patent US8163901B2, “Amide derivatives as ion-channel ligands and pharmaceutical compositions and methods of using the same” (Evotec AG, priority 2008, dated 2012)

How the values were obtained:
Format in all cases: cell-based
hVR1 [1] = molecular target: T1, hVR1 (Homo sapiens, UniProt Q8NER1); experiment: Calcium uptake assay (FLIPR), inhibition of low pH (proton)-induced calcium influx; conditions: agonist protons, low pH solution pH 5.7; cells expressing hVR1
T1 construct: R710-07 (T-REx host cell line); host or cells: T-REx System cell line, called 'human keratinocyte cell line' and 'HEK 293 cells'
Method: (§1) Functional activity of compounds against the VR1 receptor was determined by measuring changes in intracellular calcium in HEK 293 cells expressing hVR1. Compounds were examined for their ability to inhibit agonist-induced calcium influx. Relative levels of [Ca^2+] were monitored in a 96-well format using a calcium-sensitive fluorescence dye and a FLIPR TETRA, Molecular Devices.
(§2) Cells that express high levels of VR1 were obtained by generation of a cell line from human keratinocytes with heterologous expression of VR1 under control of an inducible promoter. Specifically, cells expressing human VR1 under the control of the human cytomegalovirus immediate-early (CMV) promoter and two tetracycline operator 2 (TetO2) sites were made using the T-REx System (Invitrogen, Carlsbad, Calif., USA). Details and methods concerning this system are published (Hum. Gene Ther. 9, pp. 1939-1950, 1998; Annu. Rev. Microbiol. 48, pp. 345-369, 1994; Mol. Biol. 169, pp. 707-'721, 1983). Human VR1 was subcloned into the T-REx System pcDNA5/TO vector (Invitrogen Cat# V1033-20) which was transfected into the T-REx System human keratinocyte cell line (Invitrogen Cat# R710-07) from which a stable cell line was established which expresses VR1 after induction by exposure to tetracycline or doxycycline (Hum. Gene Ther. 9, pp. 1939-1950, 1998; instructions that come with purchase of products noted above). Cells were maintained in a CO2 incubator (5% CO2) at 37° C. in culture medium containing DMEM with phenol red (Mediatech Cat #: 15-017-CV) supplemented with 10% heat-inactivated Fetal Bovine Serum, 5% Penicillin-streptomycin (Mediatech Cat #: 30-002-CI), 5% Glutamax® (L-Alanyl-L-Glutamine, Mediatech Cat #: 25-015-CI), 200 μg/ml hygromycin (Mediatech #:30-240-CR), 0.5 μg/ml blasticidin (Invitrogen #46-1120)).
For assay preparation, cells expressing human VR1 as described above were plated in 96-well plates (Becton Dickinson [BD] poly-D-lysine coated 96-well plates, cat #356692) at 55,000 cells per well in culture media (described above) that also contained 1 ug/ml doxycycline. Plated cells were then placed in an incubator (5% CO2) and incubated for 20-26 hours at 37° C., until the cells had grown to near confluency. Media was then aspirated from cells and 50 uL of dye-containing buffer (from Molecular Devices FLIPR Calcium 4 Assay kit, cat# R8141) was added to each well. Cells were then left in the dark at room temperature for 1.5-2 hours. Cell plates were then placed in the FLIPR TETRA (Molecular Devices, CA, USA). Test compounds and agonists were added to wells using the liquid handling capability of the FLIPR TETRA. Calcium responses of the cells were monitored by fluorescence readout of dye signal. Test compounds in saline (130 mM NaCl, 17 g/L sucrose, 1.8 g/L glucose, 8.8 mM HEPES, 3 mM KCl, 0.60 mM MgCl, 1.0 mM CaCl2; adjust to pH 7.4 using NaOH; 0.03% BSA added on the day of the experiment), or vehicle control in saline, were pre-incubated at the desired final concentrations in the dark at room temperature for 2 or 30 minutes with cells already containing the above mentioned dye buffer (dye solution was diluted 1:1 in culture wells with saline containing 2× the final concentration of test compound). Compound IC50 experiments were run using an agonist concentration at or near the EC50 of the agonist. […] Another agonist was protons via a low pH solution (saline solution described above plus 10 mM citric acid buffered to pH 5.7 with HCl instead of buffering to a neutral pH with NaOH as done for normal saline). Compounds were tested at various concentration ranges, depending upon potency of compound. After the 2 minute or 30 minute compound pre-treatment, treatment solution was then added to cells by adding a volume of treatment solution equal to the pretreatment solution already on the cells. […]

hVR1 [2] = molecular target: T1, hVR1; experiment: Determination of pA2 values against capsaicin stimulation (Ca2+ imaging, Schild analysis)
Method: Changes in the fluorescence signal (λex=470-495 nm, λem=515-575 nm) are monitored throughout the experiment before agonist addition and for at least 2 min after agonist addition (enough time for the fluorescence response to reach and then decline from the absolute maximum, agonist-induced signal attained). For each well, final relative fluorescence units (RFUs) are calculated as the difference between the maximum fluorescence signal obtained in the experiment after agonist addition and the signal level seen at baseline before agonist, but after antagonist, addition (the absolute minimum level of fluorescence signal observed in the 10 seconds prior to agonist addition). […] Data are fit to an ideal curve utilizing the 4-parameter sigmoid curve-fit function in GraphPad Prism software (version 4, GraphPad Software, Inc., San Diego, Calif., USA) from which an EC50 value is obtained. […] For each antagonist, at least three concentrations are tested. Dose Ratio values are then used to make a standard Schild plot—log [antagonist concentration] plotted against log [DR−1], see Kenakin reference above for theoretical background and method. A linear regression curve-fit is then performed on these plotted points. […] If these conditions are not met, then the antagonist is rerun in a pA2 assay using different antagonist concentrations until the above conditions are met.

hVR1 [3] = molecular target: T1, hVR1; experiment: Calcium uptake assay (FLIPR), inhibition of capsaicin-induced calcium influx
Method: as §1, §2
For assay preparation, cells expressing human VR1 as described above were plated in 96-well plates (Becton Dickinson [BD] poly-D-lysine coated 96-well plates, cat #356692) at 55,000 cells per well in culture media (described above) that also contained 1 ug/ml doxycycline. Plated cells were then placed in an incubator (5% CO2) and incubated for 20-26 hours at 37° C., until the cells had grown to near confluency. Media was then aspirated from cells and 50 uL of dye-containing buffer (from Molecular Devices FLIPR Calcium 4 Assay kit, cat# R8141) was added to each well. Cells were then left in the dark at room temperature for 1.5-2 hours. Cell plates were then placed in the FLIPR TETRA (Molecular Devices, CA, USA). Test compounds and agonists were added to wells using the liquid handling capability of the FLIPR TETRA. Calcium responses of the cells were monitored by fluorescence readout of dye signal. Test compounds in saline (130 mM NaCl, 17 g/L sucrose, 1.8 g/L glucose, 8.8 mM HEPES, 3 mM KCl, 0.60 mM MgCl, 1.0 mM CaCl2; adjust to pH 7.4 using NaOH; 0.03% BSA added on the day of the experiment), or vehicle control in saline, were pre-incubated at the desired final concentrations in the dark at room temperature for 2 or 30 minutes with cells already containing the above mentioned dye buffer (dye solution was diluted 1:1 in culture wells with saline containing 2× the final concentration of test compound). […] Another agonist was protons via a low pH solution (saline solution described above plus 10 mM citric acid buffered to pH 5.7 with HCl instead of buffering to a neutral pH with NaOH as done for normal saline). Compounds were tested at various concentration ranges, depending upon potency of compound. After the 2 minute or 30 minute compound pre-treatment, treatment solution was then added to cells by adding a volume of treatment solution equal to the pretreatment solution already on the cells.

T1 sequence (Q8NER1 whole entry): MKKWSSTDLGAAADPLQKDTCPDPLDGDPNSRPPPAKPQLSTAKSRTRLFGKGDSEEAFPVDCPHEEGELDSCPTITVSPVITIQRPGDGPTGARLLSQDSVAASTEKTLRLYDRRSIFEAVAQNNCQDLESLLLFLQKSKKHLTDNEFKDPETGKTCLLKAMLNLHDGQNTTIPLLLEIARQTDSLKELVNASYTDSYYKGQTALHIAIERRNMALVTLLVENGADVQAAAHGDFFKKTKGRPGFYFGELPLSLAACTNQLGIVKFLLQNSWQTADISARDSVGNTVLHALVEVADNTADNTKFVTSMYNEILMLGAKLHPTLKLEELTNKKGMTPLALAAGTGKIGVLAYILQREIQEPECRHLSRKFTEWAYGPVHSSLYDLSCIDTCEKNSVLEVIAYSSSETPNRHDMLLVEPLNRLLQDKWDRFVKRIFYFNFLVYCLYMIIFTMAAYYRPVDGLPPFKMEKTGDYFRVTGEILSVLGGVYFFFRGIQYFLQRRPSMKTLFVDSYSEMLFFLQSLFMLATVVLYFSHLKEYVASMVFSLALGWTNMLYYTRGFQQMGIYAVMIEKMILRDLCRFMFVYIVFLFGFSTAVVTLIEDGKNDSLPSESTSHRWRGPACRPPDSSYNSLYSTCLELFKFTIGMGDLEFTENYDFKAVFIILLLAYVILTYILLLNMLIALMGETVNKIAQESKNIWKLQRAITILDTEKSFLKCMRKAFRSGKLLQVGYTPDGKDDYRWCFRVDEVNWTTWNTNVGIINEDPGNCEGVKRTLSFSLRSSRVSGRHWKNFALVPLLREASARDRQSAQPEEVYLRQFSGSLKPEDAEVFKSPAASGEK

Row | Compound | IC50 (hVR1 [1]) [nM] | Kb (hVR1 [2]) [nM] | IC50 (hVR1 [3]) [nM]
1 | O=C(Nc1cnc2sc(CO)nc2c1)[C@H]1COc2cc(C(F)(F)F)ccc2O1 [Compound 16, (R)-6-Trifluoromethyl-2,3-dihydro-benzo[1,4]dioxine-2-carboxylic acid (2-hydroxymethyl-thiazolo[5,4-b]pyridin-6-yl)-amide] | 571 | 422 | –
2 | CC(C)(c1ccc2c(n1)CC[C@@H](C(=O)Nc1cnc3c(c1)COCC3)C2)C(F)(F)F (single isomer, unassigned) [Compound 18] | 18 | 32 | 6
3 | O=C(NCc1ccnc2ccccc12)C1=Cc2cc(Br)ccc2OC1 [Compound 3, 6-Bromo-2H-chromene-3-carboxylic acid (quinolin-4-ylmethyl)-amide] | 128 | – | –
4 | CC1(C(=O)Nc2cnc3sc(CO)nc3c2)CCc2nc(C(C)(C)C(F)(F)F)ccc2C1 (centres unmarked) [Compound 24, 6-Methyl-2-(2,2,2-trifluoro-1,1-dimethyl-ethyl)-5,6,7,8-tetrahydro-quinoline-6-carboxylic acid (2-hydroxymethyl-thiazolo[5,4-b]pyridin-6-yl)-amide] | 121 | 69.2 | –
5 | O=C(NCc1ccnc2ccccc12)C1=Cc2cc(Cl)ccc2OC1 [Compound 2, 6-Chloro-2H-chromene-3-carboxylic acid (Quinolin-4-ylmethyl)-amide] | 143 | – | –
6 | C[C@@H](NC(=O)[C@H]1CCc2nc(C(C)(C)C(F)(F)F)ccc2C1)c1ccc2[nH]ncc2c1 [Compound 12, (S)-2-(2,2,2-Trifluoro-1,1-dimethyl-ethyl)-5,6,7,8-tetrahydro-quinoline-6-carboxylic acid [(R)-1-(1H-indazol-5-yl)-ethyl]-amide] | 6 | 0.208 | 2
7 | CC(C)(C)c1ccc2c(c1)OC(C(=O)Nc1cnc3sc(CO)nc3c1)CO2 (centres unmarked) [Compound 8, 7-tert-Butyl-2,3-dihydro-benzo[1,4]dioxine-2-carboxylic acid (2-hydroxymethyl-thiazolo[5,4-b]pyridin-6-yl)-amide] | 8 | 14.5 | –
8 | CC(C)(c1ccc2c(n1)CC[C@@H](C(=O)Nc1cnc3ccccc3c1)C2)C(F)(F)F [Compound 21, (R)-2-(2,2,2-Trifluoro-1,1-dimethyl-ethyl)-5,6,7,8-tetrahydro-quinoline-6-carboxylic acid quinolin-3-ylamide] | 40 | 22.9 | 33
9 | CC(=O)N1CCc2ccc(NC(=O)[C@@H]3CCc4nc(C(C)(C)C(F)(F)F)ccc4C3)cc21 [Compound 23, (R)-2-(2,2,2-Trifluoro-1,1-dimethyl-ethyl)-5,6,7,8-tetrahydro-quinoline-6-carboxylic acid (1-acetyl-2,3-dihydro-1H-indol-6-yl)-amide] | 9 | 5.91 | 2
10 | O=C(NCc1ccnc2ccccc12)C1=Cc2cc(OC(F)(F)F)ccc2OC1 [Compound 4, 6-Trifluoromethoxy-2H-chromene-3-carboxylic acid (quinolin-4-ylmethyl)-amide] | 108 | – | –
11 | CC(NC(=O)[C@H]1COc2cc(C(C)(C)C)ccc2O1)c1ccc2[nH]ncc2c1 (single isomer, unassigned) [Compound 7] | 226 | 16.1 | 29
12 | CC(C)(C)c1ccc2c(c1)OCC(C(=O)NCc1ccnc3ccccc13)O2 (centres unmarked) [Compound 1, 6-tert-butyl-N-(quinolin-4-ylmethyl)-2,3-dihydrobenzo[b][1,4]dioxine-2-carboxamide] | 240 | – | 36
13 | CC(C)(c1ccc2c(n1)CC[C@@H](C(=O)Nc1cnc3sc(CO)nc3c1)C2)C(F)(F)F [Compound 15, (R)-2-(2,2,2-Trifluoro-1,1-dimethyl-ethyl)-5,6,7,8-tetrahydro-quinoline-6-carboxylic acid (2-hydroxymethyl-thiazolo[5,4-b]pyridin-6-yl)-amide] | 18 | 5.05 | 19
14 | CC(NC(=O)C1CN(C)c2cc(C(F)(F)F)ccc2O1)c1ccc2[nH]ncc2c1 (mixture of isomers) [Compound 9, 4-Methyl-6-trifluoromethyl-3,4-dihydro-2H-benzo[1,4]oxazine-2-carboxylic acid [1-(1H-indazol-5-yl)ethyl]amide] | 117 | 34.7 | 42
15 | CC(C)(c1ccc2c(n1)CC[C@H](C(=O)Nc1cnc3c(c1)COCC3)C2)C(F)(F)F (single isomer, unassigned) [Compound 19] | 67 | 17 | 9
16 | C[C@@H](NC(=O)[C@@H]1CCc2nc(C(C)(C)C(F)(F)F)ccc2C1)c1ccc2[nH]ncc2c1 [Compound 11, (R)-2-(2,2,2-Trifluoro-1,1-dimethyl-ethyl)-5,6,7,8-tetrahydro-quinoline-6-carboxylic acid [(R)-1-(1H-indazol-5-yl)-ethyl]-amide] | 23 | 1.79 | 9
